{"source": "patent US20200214330A1", "about": "“RICE PROTEIN HYDROLYSATES WITH ANTI-INFLAMMATORY PROPERTIES” (ABBOTT LABORATORIES, priority 2017, published 2020)", "type_in_all_cases": "cell-based, murine", "key": {"[1]": {"test_system": "4-1BBL expression in RAW 264.7 cells", "experiment": "LPS-induced 4-1BBL expression in RAW 264.7 macrophage cells", "conditions": "1 hour pretreatment at 0.5 μg/mL, FIG. 12", "protocol": "FIG. 5 illustrates in vitro early (6 hours after LPS stimulation) and late phase (24 hours after LPS stimulation) inhibition of 4-1BBL expression in macrophage cells (RAW264.7) pre-incubated for 1 hour with RPH-land then treated with LPS; […] FIG. 12 illustrates in vitro early (6 hours after LPS stimulation) and late (24 hours after LPS stimulation) phase inhibition of 4-1BBL expression in macrophage cells (RAW264.7) pre-incubated for 1 hour with different levels of curcumin and then treated with LPS; Specific studies have determined effects of the hydrolysates on TNFα secretion, 4-1BBL expression, and NF-κB Expression in murine macrophages (RAW 264.7 cells) treated with LPS (see FIGS. 1-13). RPH-1 inhibits early and late phase TNFα secretion from cells in culture."}, "[2]": {"test_system": "TNFα secretion from RAW 264.7 cells", "experiment": "LPS-induced TNFα secretion from RAW 264.7 macrophage cells", "conditions": "1 hour pretreatment at 0.5 μg/mL, FIG. 11", "protocol": "FIG. 11 illustrates in vitro early (6 hours after LPS stimulation) and late (24 hours after LPS stimulation) phase inhibition of TNFα secretion from macrophage cells (RAW264.7) pre-incubated with different levels of curcumin for 1 hour and then treated with LPS; Specific studies have determined effects of the hydrolysates on TNFα secretion, 4-1BBL expression, and NF-κB Expression in murine macrophages (RAW 264.7 cells) treated with LPS (see FIGS. 1-13). RPH-1 inhibits early and late phase TNFα secretion from cells in culture."}, "[3]": {"test_system": "NF-κB activation in RAW 264.7 cells", "experiment": "LPS-induced NF-κB activation in RAW 264.7 macrophage cells", "conditions": "2.5 μg/mL pretreatment for 2 hours; 30 min after LPS stimulation; FIG. 13", "protocol": "FIG. 6 illustrates in vitro NF-κB activation (30 min after LPS stimulation) in macrophage cells (RAW264.7) preincubated for 2 hours with RPH-1 and then treated with LPS; FIG. 13 illustrates in vitro inhibition of nuclear factor kappa-light-chain-enhancer of activated B cells (NF-κB) activation in macrophage cells (RAW264.7) pre-incubated with curcumin for 2 hours and treated with LPS for 30 minutes; Specific studies have determined effects of the hydrolysates on TNFα secretion, 4-1BBL expression, and NF-κB Expression in murine macrophages (RAW 264.7 cells) treated with LPS (see FIGS. 1-13). Pretreatment with curcumin at 0.5 μg/mL and […] for 1 hour led to an inhibition of TNFα secretion (FIG. 11) and 4-IBBL expression (FIG. 12) at 6 hours and 24 hours following LPS treatment."}}, "data": [{"smiles": "COc1cc(C=CC(=O)CC(=O)C=Cc2ccc(O)c(OC)c2)ccc1O", "note": "[curcumin, 1,7-Bis-(4-hydroxy-3-methoxyphenyl)-hepta-1,6-diene-3,5-dione]", "values": [{"measurement": "4-1BBL expression, early phase", "setting": "[1]; 6 hours after LPS", "result": "inhibition"}, {"measurement": "4-1BBL expression, late phase", "setting": "[1]; 24 hours after LPS", "result": "inhibition"}, {"measurement": "TNFα secretion, early phase", "setting": "[2]; 6 hours after LPS", "result": "inhibition"}, {"measurement": "TNFα secretion, late phase", "setting": "[2]; 24 hours after LPS", "result": "inhibition"}, {"measurement": "LPS-induced NF-κB expression", "setting": "[3]", "result": "decreased"}]}]}
